# Assays:
# [1] = system: TBI induced anxiety-like behavior (LFPI animals); assay: Freezing in test chamber after immediate shock, peri-injury MN166 (Example 3, FIG. 4B); assay type: in vivo, rats; settings: 1 and 3 months post-injury, untreated LFPI approximately 60% (p<0.003 and 0.0001)
# Text: Animals with LFPI froze approximately 3-4 times longer (30-40%) than Naïve animals (<10%) when placed in the test chamber (FIG. 4A). […] However, LFPI animals froze substantially more (approximately 60%) after shock compared to LFPI animals receiving no shock (30-35%; p<0.001 and 0.003, respectively). […] LFPI animals consistently froze more than all other groups, at all time points, with or without shock. […] However, by 3 months this difference was no longer significant (p<0.493).
# [2] = system: TBI induced anxiety-like behavior (LFPI rats); assay: Freezing in a novel context after LFPI and foot shock, post-injury ibudilast (Example 1, FIG. 1); assay type: in vivo, Sprague-Dawley rats
# Procedure: Twenty-four adult viral-free male Sprague-Dawley rats (275-325 g; Harlan Laboratories, Madison, Wis.) were housed in pairs in temperature (23±3° C.) and light (12:12 light:dark) controlled rooms with ad libitum access to food and water. All procedures were performed in accordance with University of Colorado Institutional Animal Care and Use Committee guidelines for the humane use of laboratory rats in biological research. Rats were randomly assigned to 1 of 4 groups (n=6/group; Sham-operated/vehicle-injected, Sham-operated/ibudilast-injected, LFPI/vehicle-injected, LFPI/ibudilast-injected). All rats were shocked approximately 2 weeks following LFPI to enhance freezing behavior in a novel context (a natural fear reaction in this species). After freezing behavior had been established (1 month post-injury) animals were subjected to a 5-day regimen of ibudilast or vehicle (corn oil) injections (once daily for 5 days). Freezing behavior was again assessed at 2 weeks, 1 month, 2 months, and at 3 months post-injection. Lateral Fluid Percussion Injury. LFPI rats were anesthetized with halothane (4% induction, 2.0-2.5% maintenance) and mounted in a stereotaxic frame. The lateral fluid percussion injury used in this study utilized a PV820 Pneumatic PicoPump (World Precision Instruments, Inc., Sarasota, Fla.) to deliver standardized pressure pulses of air to a standing column of fluid. A 3.0 mm diameter craniotomy was centered at 3 mm caudal to bregma and 4.0 mm lateral of the sagittal suture, with the exposed dura remaining intact. A female Luer-Loc hub (inside diameter of 3.5 mm) was secured over the craniotomy with cyanoacrylate adhesive. Following hub implantation, the animal was removed from the stereotaxic frame and connected to the LFPI apparatus. […] Weight was recorded prior to each dosing. […] Rats were tested (5 minutes) and the percent of freezing behavior was assessed. Freezing was defined as the absence of movement except for heart beat/respiration, and was recorded in 10 sec intervals. Statistical Analyses: Results are expressed as mean±SEM. […]
# [3] = system: TBI induced anxiety-like behavior (LFPI rats); assay: Freezing in shock chamber after fear conditioning, peri-injury ibudilast (Example 2, FIG. 2); assay type: in vivo; settings: 10 mg/kg in corn oil, 5 days (2 days before LFPI, day of LFPI, 2 days after); 1 and 3 months post-injury
# Procedure: All animals were fear conditioned by receiving shock (1.5 mA; 3-sec) immediately upon being placed in an experimental chamber. Freezing behavior was then measured the following day upon being replaced in the same chamber. Naïve (no surgical procedures) and Sham (LFPI surgery without pressure pulse) froze at a typical rate of approximately 15-20% when measured at 1 and 3 months post-injury (FIG. 2). In contrast, cohorts who received LFPI froze approximately 3 times as long at both time points.
# [4] = system: TBI induced anxiety-like behavior (LFPI animals); assay: Freezing in a novel context, shock at 1 month post-injury, peri-injury MN166 (Example 3, FIG. 3B); assay type: in vivo, rats; settings: 10 mg/kg s.c. 5 days peri-injury
# Text: Freezing behavior in rats was elicited substantially in the manner described before. When freezing behavior was made the dependent variable after placement in a novel context, large and stable differences between Naïve and LFPI animals were seen (FIG. 3). LFPI animals froze approximately 20-40% of the time compared to 5-10% for Naïve animals (FIG. 3A). Increased freezing behavior in LFPI compared to Naïve animals was significant at all time points (p<0.001). […] These animals included Naïve and LFPI groups as in FIG. 3A, but also LFPI+MN166 (Animals received a 5-day dosing regimen in which they received once-daily ibudilast injections 24 hr prior to LFPI, the day of surgery and LFPI, and 3 days following LFPI (10 mg/kg, 1 ml/kg subcutaneously in corn oil)) and a Sham surgery group. Overall, LFPI animals froze substantially more than Naïve, LFPI+MN166, and Sham groups at the 1, 2 and 3 month time points (p<0.001). Similar to the animals of FIG. 3A, at 2 weeks and 1 month post-injury, LFPI animals froze approximately 20-30% of the time in the novel context compared to approximately 5% for Naïve animals (p<0.001).
structure (smiles),measurement,setting,value
"CC(C)C(=O)c1c(C(C)C)nn2ccccc12 [Ibudilast, 2-Methyl-1-[2-(1-methylethyl)pyrazolo[1,5-a]pyridin-3-yl]-1-propanone]",percent freezing in test chamber after shock,[1],25-35%
same,freezing behavior of treated LFPI rats vs untreated LFPI rats,"[2]; LFPI rats, 10 mg/kg s.c. once daily for 5 days at 1 month post-injury, up to 3 months post-treatment, p<0.01",froze substantially less
same,freezing compared to untreated injured animals,"[2]; LFPI rats, 10 mg/kg s.c. once daily for 5 days, started 1 month post-injury, P<0.05",about 60%
same,influence on freezing of control animals,"[2]; Sham-operated rats, 10 mg/kg s.c. once daily for 5 days, all post-injection time-points",no influence on control animals
same,freezing behavior vs LFPI animals receiving vehicle injections,[3],substantially less
same,percent freezing in novel context,"[4]; 3 months post-injury, untreated LFPI 50%, Naïve 8%, Sham 10%",14%
same,"freezing compared to untreated LFPI animals, novel context","[4]; significant at 1, 2 and 3 months post-injury (p<0.01, 0.001, 0.0001)",greatly reduced freezing

# From US20120302526A1, “METHODS FOR TREATING POST-TRAUMATIC STRESS DISORDER” (Regents of the University of Colorado, a body corporate, priority 2011, published 2012)
